Tests used:
[1] = cited from earlier work
[2] = Solubility study of Apremilast in surfactants and their combinations; type: physicochemical
Procedure: The solubility of Apremilast was evaluated in various surfactants and their combinations:
About 50 mg of Apremilast (0.05% w/w) was weighed and dissolved in surfactant and or combination of surfactants at different ratios by heating at a temperature below 85° C. After complete solubilization of the Apremilast in the solubilizer matrix, purified water (q.s to 100%) was added, vortexed for 2 minutes and kept aside.

[3] = dissolved by heating below 85° C., water q.s., observed 24 hrs to 1 week

Solubility in combination of surfactants (Tween 80 and Kolliphore E L) with PEG400 [2]: good solubility
Stabilization of API ([2]; PEG400 in combination with Tween 80/Kolliphore E L): stabilized
Surfactant concentration sufficient to stabilise Apremilast ([2]; Tween 80 / kolliphor E. L, 0.001-0.9% w/w of Apremilast): 4 % w/w
Precipitation of Apremilast ([2]; below 2-8% Tween80 / kolliphor E. L concentration): precipitated out
Appearance of solution / prevention of precipitation ([2]; combination of Tween 80 and kolliphor E. L): clear solution
Solubility in Tween 80 [2, 3]: good solubility
Solubility in kolliphor E. L [2, 3]: good solubility
Precipitation of Apremilast ([2]; with 2-8% Tween80 and 2-8% kolliphor E. L): not observed
Precipitation of Apremilast ([2]; with 5% PEG 400 alone): precipitation was observed
Structure (SMILES): CCOc1cc([C@@H](CS(C)(=O)=O)N2C(=O)c3cccc(NC(C)=O)c3C2=O)ccc1OC [Apremilast, N-[2-[(1S)-1-(3-ethoxy-4-methoxyphenyl)-2-(methylsulfonyl)ethyl]-1,3-dioxo-2,3-dihydro-1H-isoindol-4-yl]acetamide]
Solubility in polar solvents ([1]; polar solvents): minimal solubility
Solubility in water ([1]; water): insolubility

— patent US20240024228A1, “Apremilast Ophthalmic Compositions” (APRAMITHA INNOVATIONS PRIVATE LIMITED, priority 2020, published 2024)
